The record followed here is patent publication US9422254B2, “Methoxyacrylate-based fungicide and methods for preparing and using the same” (priority 2008, dated 2016).

The subject of assay [1] is Rice sheath blight (strain WK-1). Put plainly: In vivo micro-screening assay.
Description: To further study the fungicidal spectrum of the compound of Formula (I), indoor in vivo micro-screening assay were carried out on cucumber gray mold, cucumber scab, cucumber sclerotinia rot, cucumber brown spot, pepper phytophthora blight, and rice sheath blight.
Cucumber scab strain: HX; cucumber brown spot strain: SDHGHB060509; cucumber sclerotinia rot strain: HGJH; pepper phytophthora blight strain: NSGP; and rice sheath blight strain: WK-1.
Medicament to be tested and medicament of control groups were prepared as needed in a sunny morning. Cucumber gray mold, cucumber scab, cucumber brown spot, cucumber sclerotinia rot, and rice sheath blight were medicated by spray, and after air dry, pathogens of cucumber scab and of cucumber brown spot were inoculated through spraying spore suspension respectively, pathogens of cucumber gray mold, of cucumber sclerotinia rot, and of rice sheath blight were inoculated through lawn foliage. Pepper phytophthora blight was medicated and inoculated by root-irrigation. Subsequently, all seedlings were cultured in wet environment.
After the disease of control groups were serious, spot area, disease index, and the diseased seedling rate were investigated to calculate the efficacy. Cucumber scab, cucumber brown spot, and pepper phytophthora blight were investigated by grading method. The spot extension area of cucumber gray mold and of rice sheath blight was investigated. The diseased seedling rate of cucumber sclerotinia rot was investigated. Disease index=Σ(amount of infected diseased leaves in a grade×relative value of the grade)×100/(total amount of leaves×9); Diseased seedling rate (%)=(total amount of seedlings−amount of diseased seedlings)/total amount of seedlings×100% Prevention and treatment effect (%)=(disease of control group−disease of experiment group)/disease of control group×100%
Assay [2] deals with Pepper phytophthora blight (strain NSGP). As to the kind of experiment: In vivo micro-screening assay. Further details: species or system Phytophthora capsici. The note with it: root-irrigation. The source says: 3. In Vivo Micro-Screening Assay
The target in assay [3] is succinate-cytochrome C oxidase (SCO) (Sus scrofa, UniProt P24964). As to the kind of experiment: Enzyme activity test, SCO. The note with it: azoxystrobin as control agent. The class given is biochemical. Here is the method:
Take NADH oxidase (NOX), succinate-cytochrome C oxidase (SCO), and Complex III as target enzymes, the inhibitory activity of the compound of Formula (I) was tested.
^a NOX is generally used to detect an inhibitor of Complex I and Complex III; SCO is generally used to detect an inhibitor of Complex II and Complex III. Thus, an inhibitor of Complex III should have inhibitory activity on the two enzymes.

Chain of succinate-cytochrome C oxidase (SCO) (P24964 whole entry): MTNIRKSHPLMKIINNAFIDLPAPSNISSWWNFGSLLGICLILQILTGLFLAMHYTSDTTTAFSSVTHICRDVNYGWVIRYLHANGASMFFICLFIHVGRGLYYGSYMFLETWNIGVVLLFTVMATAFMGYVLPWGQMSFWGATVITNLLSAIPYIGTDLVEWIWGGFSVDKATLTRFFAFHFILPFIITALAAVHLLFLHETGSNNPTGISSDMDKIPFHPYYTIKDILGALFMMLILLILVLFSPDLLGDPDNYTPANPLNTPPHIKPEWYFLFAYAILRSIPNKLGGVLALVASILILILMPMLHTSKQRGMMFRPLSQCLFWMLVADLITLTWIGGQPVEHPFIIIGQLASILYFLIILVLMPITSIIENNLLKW

As for `CO/C=C(/C(=O)OC)c1ccccc1CSc1nc2cc(OC)ccc2s1` [Compound of Formula (I), (E)-methyl 3-methoxy-2-(2-((5-methoxy-benzothiazol-2-ylthio)methyl)phenyl)acrylate], the “prevention and treatment effect” value in assay [1] is “good prevention and treatment effect”. Further, the Disease index is recorded as 59.96 in assay [1] (100 mg/L) and 46.87 in assay [1] (500 mg/L). The “Efficacy (%)” value in assay [1] (100 mg/L) is reported as 61.67%; in assay [1] (500 mg/L) it was 70.04%; in assay [2] (100 mg/L), 26.22%; in assay [2] (500 mg/L), 30.09%. Besides, the figures for the “Spot area (mm^2)” value in assay [2] (100 mg/L) and in assay [2] (500 mg/L) were 25.33 mm^2 and 24 mm^2, respectively. Besides, the “inhibitory activity on SCO compared with azoxystrobin” value in assay [3] is reported as “much higher inhibitory activity”.
